Laboratory results from patent publication US20220161456A1, “S[…] PRESERVATIVE COMPOSITION COMPRISING POLYMERIC BETAINE AND CARBAMATE” (Troy Corporation, priority 2019, published 2022).

Tested on: Trichoderma pseudokoningii (ATCC #26801), Aureobasidium pullulans (ATCC #9348), and a mixture of Aspergillus niger (ATCC #6275) and Penicillium funiculosum …
Test: ASTM D4445-10 cumulative fungal growth of all three examined organisms and Synergy Index
Type: cell-based
Details: for Σ Fungal Growth: cumulative score of the three sets of fungi; for % of Water-Only Control: Σ fungal growth normalized to water-only control
Method: (§1) Radiata pine lumber was machined to specimens with size of 7 mm by 20 mm in cross section and 70 mm long. Solutions prepared as described above were used to treat the machined Radiata pine specimens. The treatment was carried out in a 600 mL beaker. Two unused test pieces were placed on the bottom of the beaker, and the specimens, four in a layer, were placed on the previous layers until all the treatment replicates were included. The specimens were held down with a finger bearing down on a watch glass and submerged in treating solution for 15 seconds. After 15 seconds, the beaker was drained but with specimens still held down, and then was tightly covered with a piece of plastic sheet to prevent drying and was stored overnight. Similarly, untreated control specimens were treated with water.
(§2) One day after treatment, duplicate wood specimens from the same treatment group were tested according to ASTM D4445-10 methodology. The wood specimens were checked for inhibition against sapstain fungi and molds Trichoderma pseudokoningii (ATCC #26801), Aureobasidium pullulans (ATCC #9348), and a mixture of Aspergillus niger (ATCC #6275) and Penicillium funiculosum (ATCC #11797). This method is described below:
(1) Placed duplicate wood specimens on top of polyester mesh and laid on a stack of four (4) filter paper squares (approximately 2 inches by 2.5 inches) presoaked in 5 mL sterile DI water.
(2) Prepared fungal mixture from freshly grown slants of each test organism.
(3) Added 2 mL of DI water and 0.1% Tween 20 to the slant and inverted to mix.
(4) Poured the concentrate into a total volume of 16 mL.
(5) Enumerated the stock via hemocytometer and adjusted to […] with additional DI water.
(6) Inoculated wood specimens via applying 0.25 mL of one of the three separate fungal suspensions to the top of the wood and distributing evenly on the surface with an L-spreader.
(7) Placed inoculated wood specimens in a humidity chamber for one month at 95% or larger relative humidity and 28° C.
(8) Rated wood specimens with a rating from “0” (No Growth) to “5” (Complete Growth).
In order to show more directly the possible synergy in the invention, the results are presented by applying the Synergy Index (S.I.), which is analyzed using the following equation:
FGA=Cumulative fungal growth scores of all three examined organisms of compound […], acting alone
FGA′=Cumulative fungal growth scores of all three examined organisms of compound […], in the mixture
FGB=Cumulative fungal growth scores of all three examined organisms of compound […], acting alone
FGB′=Cumulative fungal growth scores of all three examined organisms of compound […], in the mixture
When SI is greater than 1, antagonism is indicated. […] When SI equals to 1, the action of biocides is additive.
as §1, with “treat” for “treat the”
as §2, with “D4445-10(2019)” for “D4445-10”, “This method is described below:” left out

[1] = 2400 ppm treatment solution, Example 2
[2] = 2400 ppm treatment solution, Example 3
[3] = 4800 ppm treatment solution, Example 2

CCCCNC(=O)OCC#CI [IPBC, 3-iodo-2-propynyl butyl carbamate]
Σ Fungal Growth [1]: 2.6 | % of Water-Only Control [1]: 18.9% | Σ Fungal Growth [2]: 3.8 | % of Water-Only Control [2]: 29.23% | Σ Fungal Growth [3]: 2.8 | % of Water-Only Control [3]: 19.8%

didecyl bis(hydroxyethyl) ammonium borate [DPAB]
Σ Fungal Growth [1]: 10.8 | % of Water-Only Control [1]: 77.5% | Σ Fungal Growth [2]: 7.6 | % of Water-Only Control [2]: 58.46% | Σ Fungal Growth [3]: 7.6 | % of Water-Only Control [3]: 55.0%
